Laboratory results from US6238875A, “Diagnostic methods useful in the characterization of lymphoproliferative disease characterized by increased EPR-1” (The Scripps Research Institute, priority 1994, dated 2001).

Tested on: T lymphocytes
Test: Intracellular Ca2+ signalling in single adherent T lymphocytes loaded with Indo-1 (real-time fluorescence)
Type: cell-based, human
Settings: 7 μM ionomycin; Indo-1-loaded T cells; data not shown
Method: Early events of intracellular Ca^2+ signalling after EPR-1 occupancy were characterized in real-time fluorescence measurements at the single cell level (Altieri, et al., Biochem. J. 288: 465 (1992)). Freshly isolated T lymphocytes were attached onto Cell-Tak-(Biopolymers, Farmington, Conn.)-coated optical grade glass coverslips (22 mm^2 diameter and <[…] thickness), and loaded intracellularly with 1 μM of the Ca^2+ -sensitive fluorescent dye Indo-1/AM (Grynkiewicz, et al., J. Biol. Chem. 260: 3440 (1985)) (Calbiochem) in 145 mM NaCl, 5 mM KCl, 1 mM Na2 HPO4, 2.5 mM CaCl2, 10 mM glucose, 25 mM HEPES, 0.5 mM MgSO4 for 45 minutes at 37° C. Cells were gently washed in the same loading buffer, and analyzed in real time fluorescence measurements in digitalized imaging using the interactive laser cytometer ACAS 470, as described (Altieri, et al., Id. (1992)). […] After 125 seconds from the addition of the primary mAb, 50 μg/ml aliquots of goat anti-mouse F(ab')2 fragments were added as a cross-linking reagent, and fluorescence changes in the target cells were monitored continuously during a 3-minute interval. Changes in cytosolic free [Ca^2+ ]i under the various conditions tested are expressed as ratio of Detector 1 (free Indo-1, 485 nm wavelength)/Detector 2 (Indo-1:Ca^2+ complex, 405 nm wavelength).

## C[C@H](CCC(=O)O)C[C@H](C)C[C@H](C)C(=O)/C=C(\O)[C@H](C)C[C@H](C)C/C=C/[C@@H](C)[C@@H](O)[C@@H](C)[C@@H](O)C[C@@H]1CC[C@@](C)([C@H]2CC[C@@](C)([C@@H](C)O)O2)O1 [ionomycin]
  cytosolic free [Ca2+]i response: large and sustained increase
